System: not listed separately
Assay: Single dose toxicity test
Type: in vivo
Settings: single tail vein injection, 250, 500 and 1000 mg/kg, 5 animals per group, observation period 8 days
Method: In a beaker, 17.6 mL of 1 mol/L NaOH was put, and 24 mL of water for injection was further added and mixed. To this was added 2.52 g of D-sorbitol. After confirming complete dissolution, 17.1 mL of 1 mol/L hydrochloric acid was added to adjust the pH to 7.4 to 7.8. The mixture was transferred to a measuring cylinder, the beaker was washed with water for injection, and the washing liquid was transferred to the measuring cylinder. This operation was repeated as much as possible, and the volume of the liquid in the measuring cylinder was increased to 80 mL while the beaker was washed. The mixture was filtration-sterilized with a filter (Millex GV, pore size: 0.22 μm, Merck, sterilized disposable product), affording a 3.15% D-sorbitol solution.
On the other hand, 10.1 mL of a 1 mol/L aqueous sodium hydroxide solution was put in a beaker, and 13.8 mL of water for injection was further added and mixed. To this were added 2.30 g of test substance and 1.45 g of D-sorbitol. After confirming complete dissolution, 1.36 mL of 1 mol/L hydrochloric acid was added to adjust the pH to 7.4 to 7.8. The mixture was transferred to a measuring cylinder, the beaker was washed with water for injection, and the washing liquid was transferred to the measuring cylinder. […]

Q: For `C[C@](N)(Cc1ccc(B(O)O)cc1F)C(=O)O` [Example 1, (S)-2-amino-3-(4-borono-2-fluorophenyl)-2-methylpropanoic acid], which “change due to administration of the test substance (single dose toxicity)” value is on record?
A: Its value is “no serious change due to the administration of the test substance was observed in any of the administration groups”.

Q: For `C[C@](N)(Cc1ccc(B(O)O)cc1Cl)C(=O)O` [Example 9, (S)-2-Amino-3-(4-borono-2-chlorophenyl)-2-methylpropanoic acid], which “change due to administration of the test substance (single dose toxicity)” value is on record?
A: The value was “no serious change due to the administration of the test substance was observed in any of the administration groups”.

System: human LAT1 and LAT2 highly expressing HEK 293 cell lines
Assay: Evaluation of LAT1 and LAT2-selective uptake
Type: cell-based
Settings: (uptake in LAT1 cells / L-BPA uptake in LAT1 cells)/(uptake in LAT2 cells / L-BPA uptake in LAT2 cells); substrate concentration 0.1 mM; relative to L-BPA on the same day
Method: HEK 293 cells that stably highly express human LAT1 and LAT2 respectively were prepared according to the method described in the article of Khunweeraphong, N et al. (Journal of Pharmacology Science, 2012, vol. 119, pp 368-380). A shuttle vector DNA (LAT1: EX-H 4509-M02, LAT2: EX-U0514-M02, manufactured by GeneCopoeia) having ampicillin and neomycin resistance markers and having full-length cDNA of human LAT1 or LAT2 inserted under the promoter of cytomegalovirus (CMV) was constructed. This vector was transfected into HEK 293 cells by a method using Lipofectamine (registered trademark) 2000 (Invitrogen) in accordance with the manufacturer's instructions. Thereafter, the stably expressing cell clone of the transgene was selected by the limiting dilution method in the presence of 0.9 mg/mL Geneticin (registered trademark), and a cell clone in which the uptake of L-boronophenylalanine (L-BPA) was enhanced by about 2 to about 5 times as compared with HEK 293 cells before transfection was obtained. This cell was passaged and used for evaluation of LAT1 and LAT2-selective uptake.
As a method for evaluating cell uptake, the same method as in the article of Khunweeraphong, N et al. (Journal of Pharmacology Science, 2012, vol. 119, pp 368-380) was used. Each of the cells obtained in (1) was used for evaluation. Radioactive isotopes were not used, a substrate concentration was 0.1 mM, and 2 mM BCH (2-amino-2-norbonanecarboxylic acid) was used as an LAT1 and LAT2 inhibitor. The reacted cells were collected with 0.05% Tween 20 and the concentration of the 4-borono-phenylalanine derivative in the cell fluid was determined. Quantification of the 4-borono-phenylalanine derivative in cells was performed in accordance with the method described in the article of Hattori, Y, et al. (Sensors 2017, 17, 2436), using 2-(2-hydroxyphenyl)pyridine (boron sensor 5) as a boron sensor. In the evaluation of cell uptake, in consideration of variations between experiments, the cell uptake was evaluated as a value (LAT1 selectivity) relative to the uptake of L-BPA as a comparative object performed on the same day.
LAT1 selectivity=(quantitative value of uptake of the compound in LAT1 cells/quantitative value of uptake of control L-BPA in LAT1 cells)/(quantitative value of uptake of the compound in LAT2 cells/quantitative value of uptake of control L-BPA in LAT2 cells)

Q: For `C[C@](N)(Cc1ccc(B(O)O)c(F)c1)C(=O)O` [Example 15, (S)-2-Amino-3-(4-borono-3-fluorophenyl)-2-methylpropanoic acid], which LAT1 selectivity is on record?
A: Its LAT1 selectivity is “twice or more”.

Q: With `C[C@](N)(Cc1ccc(B(O)O)cc1F)C(=O)O` [Example 1, (S)-2-amino-3-(4-borono-2-fluorophenyl)-2-methylpropanoic acid] as the molecule, how does the LAT1 selectivity read?
A: Its LAT1 selectivity is “twice or more”.

Q: With `C[C@](N)(Cc1cc(Cl)c(B(O)O)cc1F)C(=O)O` [Example 13, (S)-2-Amino-3-(4-borono-5-chloro-2-fluorophenyl)-2-methylpropanoic acid] as the molecule, how does the LAT1 selectivity read?
A: Its LAT1 selectivity is “twice or more”.

Q: With `C[C@](N)(Cc1ccc(B(O)O)cc1Cl)C(=O)O` [Example 9, (S)-2-Amino-3-(4-borono-2-chlorophenyl)-2-methylpropanoic acid] as the molecule, how does the LAT1 selectivity read?
A: Its LAT1 selectivity is “twice or more”.

Q: For `CSc1cc(B(O)O)ccc1C[C@](C)(N)C(=O)O` [Example 34, (S)-2-Amino-3-(4-borono-2-(methylthio)phenyl)-2-methylpropanoic acid], which LAT1 selectivity is on record?
A: The LAT1 selectivity was “twice or more”.

Q: For `C[C@](N)(Cc1ccc(B(O)O)cc1C(F)F)C(=O)O` [Example 35, (S)-2-Amino-3-(4-borono-2-(difluoromethyl)phenyl)-2-methylpropanoic acid], which LAT1 selectivity is on record?
A: The LAT1 selectivity was “twice or more”.

Q: For `C[C@](N)(Cc1ccc(B(O)O)c(Cl)c1)C(=O)O` [Example 37, (S)-2-Amino-3-(4-borono-3-chlorophenyl)-2-methylpropanoic acid], which LAT1 selectivity is on record?
A: Its LAT1 selectivity is “twice or more”.

Q: Which LAT1 selectivity does the source give for `N[C@@H](Cc1ncc(B(O)O)cc1Cl)C(=O)O` [Example 50, (S)-2-Amino-3-(5-borono-3-chloropyridin-2-yl)propanoic acid] here?
A: Its LAT1 selectivity is “twice or more”.

Q: Which LAT1 selectivity does the source give for `COc1cc(B(O)O)ccc1C[C@](C)(N)C(=O)O` [Example 7, (S)-2-Amino-3-(4-borono-2-methoxyphenyl)-2-methylpropanoic acid] here?
A: The LAT1 selectivity was “twice or more”.

Q: Which LAT1 selectivity does the source give for `Cc1cc(C[C@H](N)C(=O)O)ncc1B(O)O` [Example 51, (S)-2-Amino-3-(5-borono-4-methylpyridin-2-yl)propanoic acid] here?
A: The LAT1 selectivity was “twice or more”.

Q: With `Cc1cc(B(O)O)ccc1C[C@@](C)(N)C(=O)O` [Example 4, (R)-2-Amino-3-(4-borono-2-methylphenyl)-2-methylpropanoic acid] as the molecule, how does the LAT1 selectivity read?
A: The LAT1 selectivity was “twice or more”.

Q: For `C[C@](N)(Cc1ccc(B(O)O)cc1C(F)(F)F)C(=O)O` [Example 5, (S)-2-Amino-3-(4-borono-2-(trifluoromethyl)phenyl)-2-methylpropanoic acid], which LAT1 selectivity is on record?
A: Its LAT1 selectivity is “twice or more”.

Q: Which LAT1 selectivity does the source give for `C[C@](N)(Cc1c(F)cc(B(O)O)cc1F)C(=O)O` [Example 11, (S)-2-Amino-3-(4-borono-2,6-difluorophenyl)-2-methylpropanoic acid] here?
A: Its LAT1 selectivity is “twice or more”.

Q: With `C[C@](N)(Cc1cc(F)c(B(O)O)cc1Cl)C(=O)O` [Example 29, (S)-2-Amino-3-(4-borono-2-chloro-5-fluorophenyl)-2-methylpropanoic acid] as the molecule, how does the LAT1 selectivity read?
A: Its LAT1 selectivity is “twice or more”.

Q: With `Cc1cc(B(O)O)ccc1C[C@](C)(N)C(=O)O` [Example 3, (S)-2-Amino-3-(4-borono-2-methylphenyl)-2-methylpropanoic acid] as the molecule, how does the LAT1 selectivity read?
A: The LAT1 selectivity was “twice or more”.

Q: Which LAT1 selectivity does the source give for `N[C@@H](Cc1ccc(B(O)O)cn1)C(=O)O` [Example 44, (S)-2-Amino-3-(5-boronopyridin-2-yl)propanoic acid] here?
A: The LAT1 selectivity was “twice or more”.

Q: For `C[C@@](N)(Cc1ccc(B(O)O)c(F)c1)C(=O)O` [Example 16, (R)-2-Amino-3-(4-borono-3-fluorophenyl)-2-methylpropanoic acid], which LAT1 selectivity is on record?
A: The LAT1 selectivity was “twice or more”.

Q: With `C[C@](N)(Cc1ccc(B(O)O)c(F)c1F)C(=O)O` [Example 14, (S)-2-Amino-3-(4-borono-2,3-difluorophenyl)-2-methylpropanoic acid] as the molecule, how does the LAT1 selectivity read?
A: Its LAT1 selectivity is “twice or more”.

Q: Which LAT1 selectivity does the source give for `Cc1cc(C[C@](C)(N)C(=O)O)ccc1B(O)O` [Example 17, (S)-2-Amino-3-(4-borono-3-methylphenyl)-2-methylpropanoic acid] here?
A: The LAT1 selectivity was “twice or more”.

Q: For `C[C@@](N)(Cc1ccc(B(O)O)cc1F)C(=O)O` [Example 2, (R)-2-Amino-3-(4-borono-2-fluorophenyl)-2-methylpropanoic acid], which LAT1 selectivity is on record?
A: Its LAT1 selectivity is “twice or more”.

Q: With `C[C@@](N)(Cc1ccc(B(O)O)cc1C(F)F)C(=O)O` [Example 36, (R)-2-Amino-3-(4-borono-2-(difluoromethyl)phenyl)-2-methylpropanoic acid] as the molecule, how does the LAT1 selectivity read?
A: Its LAT1 selectivity is “twice or more”.

Q: For `Cc1cc(B(O)O)cnc1C[C@H](N)C(=O)O` [Example 49, (S)-2-Amino-3-(5-borono-3-methylpyridin-2-yl)propanoic acid], which LAT1 selectivity is on record?
A: Its LAT1 selectivity is “twice or more”.

Q: For `C[C@@](N)(Cc1ccc(B(O)O)cc1C(F)(F)F)C(=O)O` [Example 6, (R)-2-Amino-3-(4-borono-2-(trifluoromethyl)phenyl)-2-methylpropanoic acid], which LAT1 selectivity is on record?
A: Its LAT1 selectivity is “twice or more”.

— patent US20240239816A1, “BORONO-PHENYLALANINE DERIVATIVE” (STELLA PHARMA CORPORATION, priority 2021, published 2024)
